Data set [1] in a line: Drug excretion in 80 last instar Trichoplusia ni (cabbage looper) larvae feces assessed as unchanged parent compound at 0.1 % fwt, po measured after 3 days by 1H/13C NMR analysis. The settings on record: in vivo, 72 h. In kind it is ADME, organism-based.
A short description of data set [2]: Drug excretion in 80 last instar Trichoplusia ni (cabbage looper) larvae feces assessed as side chain methyl group hydroxylated compound on at 0.1 % fwt, po by 1H/13C NMR analysis. In kind it is ADME, organism-based. As to conditions: in vivo; call rule not given here.
The nature of data set [3]: Drug excretion in 80 last instar Trichoplusia ni (cabbage looper) larvae feces assessed as side chain methyl group hydroxylated compound on at 0.1 % fwt, po by TLC analysis. In kind it is ADME, organism-based. The settings on record: in vivo.
A short description of data set [4]: Drug excretion in 80 last instar Spodoptera litura larvae feces assessed as side chain methyl group hydroxylated compound on at 0.1 % fwt, po by TLC analysis. As to conditions: in vivo. It is filed as ADME, organism-based.
Data set [5] is described as follows: Drug excretion in 80 last instar Spodoptera litura larvae feces assessed as unchanged parent compound at 0.1 % fwt, po measured after 3 days by 1H/13C analysis. It is filed as ADME, organism-based. The settings on record: in vivo, 72 h.
A short description of data set [6]: Drug excretion in 80 last instar Trichoplusia ni (cabbage looper) larvae feces assessed as thymol 3-O-beta-glucoside at 0.1 % fwt, po measured after 3 days by 1H/13C NMR analysis. The settings on record: in vivo, 72 h. In kind it is ADME, organism-based.
Data set [7] can be described thus: Drug excretion in 80 last instar Trichoplusia ni (cabbage looper) larvae feces assessed as thymol 3-O-beta-glucoside at 0.1 % fwt, po measured after 3 days by TLC analysis. In kind it is ADME, organism-based. As to conditions: in vivo, 72 h.
A short description of data set [8]: Drug excretion in 80 last instar Spodoptera litura larvae feces assessed as thymol 3-O-beta-glucoside at 0.1 % fwt, po measured after 3 days by TLC analysis. In kind it is ADME, organism-based. As to conditions: in vivo, 72 h.
Data set [9] is described as follows: Drug excretion in 80 last instar Spodoptera litura larvae feces assessed as thymol 3-O-beta-glucoside at 0.1 % fwt, po measured after 3 days by 1H/13C NMR analysis. It is filed as ADME, organism-based. As to conditions: in vivo, 72 h.
Data set [10] in a line: Drug excretion in 30 last instar Trichoplusia ni (cabbage looper) larvae feces assessed as thymol 3-O-beta-glucoside at 100 ug administered topically on abdominal terga by TLC analysis. The settings on record: in vivo, topical_or_ocular. In kind it is ADME.

The values that follow come from ChEMBL document CHEMBL3044555, “Metabolism of thymol and trans-anethole in larvae of Spodoptera litura and Trichoplusia ni (Lepidoptera: Noctuidae)” (J Agric Food Chem, 2004).

Take `C/C=C/c1ccc(OC)cc1` [ANETHOLE]: the Drug excretion entry is recorded as “Not Active” in data set [1], “Active” in [2], 5.8 mg in data set [3] and 5.8 mg in data set [4].
In the case of `Cc1ccc(C(C)C)c(O)c1` [THYMOL], the Drug excretion result in data set [1] is reported as “Active”; in data set [5], “Active”; in data set [6], “Active”; in data set [7] it was 3.2 mg; in data set [8] it was 3.2 mg; in data set [9] it was “Active”. The Drug excretion entry in data set [10] is reported as “Active”.
